Experimental data reported in patent US20260347403A1, “FUNGICIDAL COMPOUND” (priority 2022, published 2026).
Read-outs that look alike come from different tables or passages of the source. Numbered stars: 1 amine (or outer) side, 2 acyl side, 3 side chain; on linkers, the order of the positions; unused ones are H or OH. Bridge positions count the residues as written; N and C are the ends. Square brackets hold non-standard residues; d marks the D form. Peptide text beside a SMILES is read from it. * marks the point of attachment. X1 = NC(=O)CC(O)C(N[*:1])C(=O)[*:2]; NMeF = CN[CH](Cc1ccccc1)C(=O)O; NMeN = CN[CH](CC(N)=O)C(=O)O; X2 = CCC(C)CCCCCCCCCCC(=O)*

Assays:
Pyricularia oryzae = type: cell-based; settings: line H malonomicin alone, concentrations in Table 8
Sclerotinia sclerotiorum = assay: Liquid culture 96-well mixture assay with malonomicin, Sclerotinia sclerotiorum, 72 hrs; type: cell-based; settings: line H malonomicin alone, concentrations in Table 8
Protocol: A stock solution for compound of Formula I(a) was produced in DMSO (max. 10 mg/ml). Malonomicin was produced according to Law et al, 2018 (Nature Catalys is |VOL 1|DECEMBER 2018|977-984). A stock solution of malonomicin was produced in water plus 0.025% Tween® 20.
Assays to test efficacy of mixtures of the lipopeptide compound of Formula I(a) in combination with malonomicin on the control of fungal pathogens in a liquid culture assay were designed for a 96well plate as outlined in table 1:
The 96 well plate design allows to compare disease control of the mixture with disease control of the respective single compound at the same rate.
A master plate with 10× concentrated solution of the compound stock solutions diluted in water plus 0.025% Tween® 20 was prepared. The concentration of DMSO (from the stock of compound of Formula (a)) and Tween® 20 was kept constant in all cells of the master plate. 10 μl was transferred from the master plate to a 96well test plate. The nutrient broth containing the fungal spores/mycelia fragments was then added to the test plate to give an end concentration of 1× for the tested compounds (as outlined in Table 8). The test plates were incubated in the dark at 24 °C and 96% rh. The inhibition of fungal growth was determined photometrically after ca 3 days, and percent fungal growth reduction relative to the untreated check was calculated.
Sclerotinia sclerotiorum (EPPO Code: SCLESC)
Mycelial fragments of the fungus prepared from a fresh liquid culture were directly mixed into nutrient broth (PDB: potato dextrose broth).

Glomerella lagenarium = assay: Liquid culture, Glomerella lagenarium (Colletotrichum lagenarium), Anthracnose, 3-4 days; type: cell-based; settings: Colletotrichum orbiculare, read-out: % reduction fungal growth
Protocol: (§1) Mycelia fragments or conidia suspensions of a fungus, prepared either freshly from liquid cultures of the fungus or from cryogenic storage, were directly mixed into nutrient broth.
(§2) A stock solution for compound of Formula I(a) and Formula I(b) was produced in DMSO (max. 10 mg/ml), which was diluted with water plus 0.025% Tween®20 to produce a 10× concentrated sample and 10 μl of this solution was pipetted into a microtiter plate (96-well format). The nutrient broth containing the fungal spores/mycelia fragments was then added to give an end concentration of the tested compound. The test plates were incubated in the dark at 24 °C and 96% rh. The inhibition of fungal growth was determined photometrically after 2-7 days, depending on the pathosystem, and percent antifungal activity relative to the untreated check was calculated.
(§3) The effect of the test compound (Formula I(a), I(b) and Lipopeptin A) was tested against the following fungi under the conditions as outlined above and specifically herein below:
Glomerella lagenarium (Colletotrichum lagenarium)/Liquid Culture (Anthracnose)
Conidia of the fungus from cryogenic storage were directly mixed into nutrient broth (PDB potato dextrose broth). The inhibition of growth was measured photometrically 3-4 days after application.

Mycosphaerella arachidis = assay: Liquid culture, Mycosphaerella arachidis (Cercospora arachidicola), early leaf spot, 4-5 days; type: cell-based; settings: Mycosphaerella arachidis, read-out: % reduction fungal growth
Protocol: as §1, §2, §3
Mycosphaerella arachidis (Cercospora arachidicola)/liquid culture (early leaf spot) Conidia of the fungus from cryogenic storage were directly mixed into nutrient broth (PDB potato dextrose broth). The inhibition of growth was determined photometrically 4-5 days after application.

Zymoseptoria tritici = assay: Liquid culture, Zymoseptoria tritici (Septoria tritici), Septoria leaf blotch, 4-5 days; type: cell-based; settings: Zymoseptoria tritici, read-out: % reduction fungal growth
Protocol: as §1, §2, §3
Zymoseptoria tritici (Septoria tritici)/liquid culture (Septoria leaf blotch) Conidia of the fungus from cryogenic storage were directly mixed into nutrient broth (PDB potato dextrose broth). The inhibition of growth was determined photometrically 4-5 days after application.

[1] = tested on: Puccinia recondita f. sp. tritici; assay: Leaf painting assay in wheat seedling, Puccinia recondita; type: in vivo, Puccinia recondita f. sp. tritici on wheat (variety Arina); settings: for % reduction of fungal growth: middle segment
Protocol: Wheat seedlings of the variety Riband (for Zymoseptoria tritici trials) or variety Arina (for Puccinia recondite trials) were grown in a glasshouse until 14 d after seeding. At this time, such seedlings usually have a first leaf fully emerged (designated L1), a second leaf fully emerged (L2) and a third leaf (L3) that was partially emerged and in the process of development. Using a permanent pen, two dots were applied on the second leaf such as to generate three segments of roughly equal size: Segment A (at the base), segment B (middle part) and segment C (upper part of the leaf). A stock solution of the test compound was produced in DMSO at a concentration of 10′000 ppm. […] The diluted compound was applied to the middle segment of L2 using a conventional cotton stick; the cotton stick was soaked in the diluted compound and rubbed several times on the adaxial leaf surface between the two marks. 1 day later, the complete plant was inoculated with a fungal spore suspension using a paint brush and application of the spore suspension until before run-off.
For infection with Puccinia recondita: The test plants were inoculated by spraying them with a spore suspension 1 day after application (spore suspension at 80′000 spores per ml in water supplemented with Tween® 20 at 0.1%). After an incubation period of 1 day at 20 °C and 95% rh, the inoculated test plants were kept at 20 °C and 60% rh in a greenhouse.
The three segments of the leaf were evaluated individually.

[2] = plate column (2), highest malonomicin concentration, lines A-G with compound of Formula I(a) dilution series
[3] = plate column (3) of malonomicin dilution series, lines A-G with compound of Formula I(a)
[4] = plate column (4) of malonomicin dilution series, lines A-G with compound of Formula I(a)
[5] = plate column (5) of malonomicin dilution series, lines A-G with compound of Formula I(a)
[6] = plate column (6) of malonomicin dilution series, lines A-G with compound of Formula I(a)
[7] = plate column (7) of malonomicin dilution series, lines A-G with compound of Formula I(a)
[8] = plate column (8) of malonomicin dilution series, lines A-G with compound of Formula I(a)
[9] = plate column (9) of malonomicin dilution series, lines A-G with compound of Formula I(a)
[10] = plate column (10) of malonomicin dilution series, lines A-G with compound of Formula I(a)
[11] = plate column (11), lowest malonomicin concentration, lines A-G with compound of Formula I(a)

## NC[C@@H]1NC(=O)C(C(=O)CC(NC(=O)[C@@H](N)CO)(C(=O)O)C(=O)O)=C1O [malonomicin, {[(2S)-2-amino-3-hydroxypropanoyl]amino}{2-[(5S)-5-(aminomethyl)-4-hydroxy-2-oxo-2,5-dihydro-1H-pyrrol-3-yl]-2-oxoethyl}malonic acid]
Pyricularia oryzae; [2]
  control of fungal growth (% reduction of growth in the test well as compared to untreated check): 90%
Pyricularia oryzae; [3]
  control of fungal growth (% reduction of growth in the test well as compared to untreated check): 70%
Pyricularia oryzae; [4]
  control of fungal growth (% reduction of growth in the test well as compared to untreated check): 70%
Pyricularia oryzae; [5]
  control of fungal growth (% reduction of growth in the test well as compared to untreated check): 50%
Pyricularia oryzae; [6]
  control of fungal growth (% reduction of growth in the test well as compared to untreated check): 50%
Pyricularia oryzae; [7]
  control of fungal growth (% reduction of growth in the test well as compared to untreated check): 20%
Pyricularia oryzae; [8]
  control of fungal growth (% reduction of growth in the test well as compared to untreated check): 20%
Pyricularia oryzae; [9]
  control of fungal growth (% reduction of growth in the test well as compared to untreated check): 0%
Pyricularia oryzae; [10]
  control of fungal growth (% reduction of growth in the test well as compared to untreated check): 0%
Pyricularia oryzae; [11]
  control of fungal growth (% reduction of growth in the test well as compared to untreated check): 0%
Sclerotinia sclerotiorum; [2]
  control of fungal growth (% reduction of growth in the test well as compared to untreated check): 90%
Sclerotinia sclerotiorum; [3]
  control of fungal growth (% reduction of growth in the test well as compared to untreated check): 90%
Sclerotinia sclerotiorum; [4]
  control of fungal growth (% reduction of growth in the test well as compared to untreated check): 90%
Sclerotinia sclerotiorum; [5]
  control of fungal growth (% reduction of growth in the test well as compared to untreated check): 70%
Sclerotinia sclerotiorum; [6]
  control of fungal growth (% reduction of growth in the test well as compared to untreated check): 50%
Sclerotinia sclerotiorum; [7]
  control of fungal growth (% reduction of growth in the test well as compared to untreated check): 20%
Sclerotinia sclerotiorum; [8]
  control of fungal growth (% reduction of growth in the test well as compared to untreated check): 0%
Sclerotinia sclerotiorum; [9]
  control of fungal growth (% reduction of growth in the test well as compared to untreated check): 0%
Sclerotinia sclerotiorum; [10]
  control of fungal growth (% reduction of growth in the test well as compared to untreated check): 0%
Sclerotinia sclerotiorum; [11]
  control of fungal growth (% reduction of growth in the test well as compared to untreated check): 0%

## CCC(C)CCCCCCCCCCC(=O)NC1C(=O)NC(CC(=O)O)C(=O)NC(C(O)CC(N)=O)C(=O)NC(CO)C(=O)N(C)C(CC(N)=O)C(=O)N(C)C(Cc2ccccc2)C(=O)NC(CCC(N)=O)C(=O)NC(CCC(=O)O)C(=O)OC1C (centres unmarked) [Formula I(b)] (X2-TD[X1]S[NMeN][NMeF]QE; ester 1-C; configuration not given here)
Glomerella lagenarium; Table 2
  inhibition of growth at 0.41 ppm: 0%
  inhibition of growth at 1.2 ppm: 0%
  inhibition of growth at 3.7 ppm: 0%
  inhibition of growth at 11 ppm: 0%
  inhibition of growth at 33 ppm: 0%
  inhibition of growth at 100 ppm: 0%
Glomerella lagenarium; Table 3
  inhibition of growth at 0.41 ppm: 0%
  inhibition of growth at 1.2 ppm: 0%
  inhibition of growth at 3.7 ppm: 0%
  inhibition of growth at 11 ppm: 0%
  inhibition of growth at 33 ppm: 0%
  inhibition of growth at 100 ppm: 0%
Mycosphaerella arachidis; Table 2
  inhibition of growth at 0.41 ppm: 0%
  inhibition of growth at 1.2 ppm: 0%
  inhibition of growth at 3.7 ppm: 0%
  inhibition of growth at 11 ppm: 90%
  inhibition of growth at 33 ppm: 100%
  inhibition of growth at 100 ppm: 100%
Mycosphaerella arachidis; Table 3
  inhibition of growth at 0.41 ppm: 0%
  inhibition of growth at 1.2 ppm: 0%
  inhibition of growth at 3.7 ppm: 0%
  inhibition of growth at 11 ppm: 100%
  inhibition of growth at 33 ppm: 100%
  inhibition of growth at 100 ppm: 100%
Zymoseptoria tritici; Table 2
  inhibition of growth at 0.41 ppm: 0%
  inhibition of growth at 1.2 ppm: 0%
  inhibition of growth at 3.7 ppm: 0%
  inhibition of growth at 11 ppm: 50%
  inhibition of growth at 33 ppm: 70%
  inhibition of growth at 100 ppm: 70%
Zymoseptoria tritici; Table 3
  inhibition of growth at 0.41 ppm: 0%
  inhibition of growth at 1.2 ppm: 0%
  inhibition of growth at 3.7 ppm: 0%
  inhibition of growth at 11 ppm: 90%
  inhibition of growth at 33 ppm: 90%
  inhibition of growth at 100 ppm: 90%
[1]; 20 ppm
  % reduction of fungal growth: 55%
[1]; 200 ppm
  % reduction of fungal growth: 67%
[1]; up to, Table 6, Puccinia
  control on the treated area (middle segment): up to 70%
